Like-named read-outs stand apart in the source and are kept apart here.
Tests used:
K-Ras^G12D and hSOS1 = molecular target: T1, K-Ras^G12D and hSOS1 (Homo sapiens, UniProt Q07889); test: K-Ras G12D and hSOS1 binding assay (HTRF); details: inhibition of binding of K-Ras G12D to hSOS1, HTRF; read-out: Activity by IC50 (nM), SOS1 inhibitory activity
T1 construct: variant: G12D
Experimental: 1. K-Ras^G12D and hSOS1 Binding Assay
This assay could be used to examine the potency of the compounds to inhibit the protein-protein interaction between SOS1 and KRAS G12D. The binding of anti-GSK-Europium (FRET donor)-conjugated GST-KRas^G12D to anti-6His-XL665-conjugated His-tagged hSOS1 ([…]) was detected by homogeneous time-resolved fluorescence (HTRF), and the inhibitory effects of the compounds on the binding of K-Ras^G12D to hSOS1 were determined.
• Buffer (5 mM HEPES pH 7.4, 150 mM NaCl, 10 mM EDTA, 1 mM DTT, 0.05% BAS pH 7.0, 0.0025% 1gepal, and 100 mM KF); • GST-tagged hK-RasG12D (produced in-house); • His-tagged hSOS1 (produced in-house);
• 10 nM (final concentration) GST-hK-RasG12D and 2 nM (final concentration) anti-GSK-Europium in assay buffer were mixed, and set aside at room temperature.
• 20 nM (final concentration) His-tagged hSOS1 and 10 nM (final concentration) anti-6His-XL665 in assay buffer were mixed, and set aside at room temperature.
The test compound was dissolved in DMSO at a concentration of 100 times the assay concentration. 50 nL of the solution of compound was pipetted by Hummingbird liquid handler or Echo acoustic system to a black microassay plate.
All the experimental steps were conducted at 20° C. In the experiment, 2.5 μL of the liquid mixture of Ras was added to all wells of the assay plate using a Multidrop dispenser. After pre-incubation for 2 min, 2.5 μL of the liquid mixture of SOS was added to all the test wells other than the marginal wells, and 2.5 μL of the […], as a control, was added to the marginal wells. After incubation for 60 min, the assay plate passed through the HTRF module of Pheraster (excitation light: 337 nm, emission light 1: 620 nm, emission light 2: 665 nm).
The IC50 values were calculated and analyzed using a four-parameter logistic regression model.

NCI-H358 cells = test: 3D cell proliferation inhibition assay (CellTiter-Glo 3D); assay type: cell-based; details: Homo sapiens, read-out: Activity by IC50 (nM), inhibitory activity against NCI-H358 cell proliferation
From the text: The cell proliferation inhibition assay was used to determine the abilities of compounds to inhibit the proliferation and growth of SOS1-mediated tumor cells at the in vitro 3D cellular level. The CellTiter-Glo® 3D Cell Viability Assay was employed.
• NCI-H358: KRAS G12C-mutated non-small cell lung cancer (NSCLC); • CellTiter-Glo® 3D Cell Viability Assay, Promega, G9683; • RPMI 1640 medium, Gibco, A10491-01; • FBS, Gibco, 10099141C.
• Day 1: NCI-H358 cells were passaged into a T75 cell culture flask. • Day 3: the medium was removed; the cells were rinsed once with DPBS, and digested at room temperature or at 37° C. using 2 mL of TrypLE™ Express Enzyme until the cells were detached; the resultant was added with 5 mL of fresh medium, and centrifuged at 1000 rpm for 5 min; the supernatant was discarded, and 5 mL of fresh medium was added to resuspend the cells; the cells were counted and then seeded at 40 μL/well in a 3D cell culture plate (Echo Qualified 384-Well Polypropylene Microplate 2.0, Clear, Flat Bottom).
• Day 1: the test compound was dissolved in DMSO to prepare a 10 mM stock solution; after a 1000-fold dilution with DMSO, the test compound solution was subjected to ten 3-fold serial dilutions starting from a concentration of 10 μM; 200 nL of the compound solution was added to the culture plate. • Day 8: CTG 3D reagent was added at 40 μL/well, and the signal was detected using Envision.
The IC50 values of the compounds were fitted using the Graphpad Prism 8 nonlinear regression equation.
[formula] • X: Log of cpd concentration; • Y: Percent inhibition (% inh).

[1] = 192 h, NCI-H358 (KRAS G12C-mutated NSCLC), 3D culture, CTG 3D read on Day 8

T1 sequence (Q07889 whole entry, looked up, stated change not applied): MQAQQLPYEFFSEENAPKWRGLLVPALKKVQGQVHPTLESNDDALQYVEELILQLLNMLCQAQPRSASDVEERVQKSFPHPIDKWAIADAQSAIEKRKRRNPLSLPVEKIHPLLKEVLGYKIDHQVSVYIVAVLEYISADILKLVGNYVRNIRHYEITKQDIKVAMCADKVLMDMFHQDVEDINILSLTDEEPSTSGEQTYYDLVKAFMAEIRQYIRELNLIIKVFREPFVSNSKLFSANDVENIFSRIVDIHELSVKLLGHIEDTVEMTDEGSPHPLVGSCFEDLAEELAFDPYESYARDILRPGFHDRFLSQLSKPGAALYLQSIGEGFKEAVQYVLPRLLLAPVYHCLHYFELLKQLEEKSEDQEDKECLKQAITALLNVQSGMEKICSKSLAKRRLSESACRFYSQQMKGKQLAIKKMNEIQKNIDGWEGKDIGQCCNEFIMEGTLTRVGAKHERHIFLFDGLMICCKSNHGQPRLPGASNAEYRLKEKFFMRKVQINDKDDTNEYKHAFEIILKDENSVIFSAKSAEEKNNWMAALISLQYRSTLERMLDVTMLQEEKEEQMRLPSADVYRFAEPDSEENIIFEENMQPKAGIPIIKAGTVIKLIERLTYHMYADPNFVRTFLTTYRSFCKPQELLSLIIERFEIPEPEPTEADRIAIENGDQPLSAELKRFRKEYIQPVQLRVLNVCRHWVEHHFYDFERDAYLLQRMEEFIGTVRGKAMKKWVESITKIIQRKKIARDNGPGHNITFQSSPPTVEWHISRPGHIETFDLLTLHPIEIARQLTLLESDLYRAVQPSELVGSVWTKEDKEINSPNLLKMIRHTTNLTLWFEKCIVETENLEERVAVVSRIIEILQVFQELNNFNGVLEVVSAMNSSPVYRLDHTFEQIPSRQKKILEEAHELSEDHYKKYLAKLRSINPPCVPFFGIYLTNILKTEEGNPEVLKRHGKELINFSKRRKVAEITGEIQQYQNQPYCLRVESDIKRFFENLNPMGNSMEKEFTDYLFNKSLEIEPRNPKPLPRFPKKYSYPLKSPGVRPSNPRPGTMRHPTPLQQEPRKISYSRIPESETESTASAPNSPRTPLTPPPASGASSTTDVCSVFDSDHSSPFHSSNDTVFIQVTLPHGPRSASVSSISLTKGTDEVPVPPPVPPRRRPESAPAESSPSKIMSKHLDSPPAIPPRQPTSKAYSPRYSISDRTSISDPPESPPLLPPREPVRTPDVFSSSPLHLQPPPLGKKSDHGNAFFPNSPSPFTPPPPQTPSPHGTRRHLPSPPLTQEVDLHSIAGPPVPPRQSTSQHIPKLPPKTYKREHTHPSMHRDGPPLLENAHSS

Compound	IC50 (K-Ras^G12D and hSOS1) [nM]	IC50 (NCI-H358 cells; [1]) [nM]	IC50 (NCI-H358 cells; NCI-H358, 192 h) [nM]
CC(=O)N1CC=C(c2cc3c(N[C@H](C)c4cccc(C(F)(F)F)c4)nc(C)nc3n3cnnc23)CC1 [Example 2]	10 to 50	100 to 500	–
Cc1nc(N[C@H](C)c2cccc(C(F)(F)F)c2)c2cc(N3CCN(C)CC3)c3nncn3c2n1 [Example 3]	10 to 50	100 to 500	–
Cc1nc(N[C@H](C)c2cccc(C(F)(F)F)c2)c2cc(N3CCOCC3)c3nncn3c2n1 [Example 4]	10 to 50	100 to 500	–
Cc1nc(N[C@H](C)c2cc(N)cc(C(F)(F)F)c2)c2c(n1)N1CCN=C1C(c1ccn(C)c(=O)c1)=C2 [Example 6]	–	–	< 50
Cc1nc(N[C@H](C)c2cccc(C(F)F)c2F)c2c(n1)N1CCN=C1C(c1ccn(C)c(=O)c1)=C2 [Example 7]	–	–	< 50
Cc1nc(N[C@H](C)c2cccc(C(F)F)c2F)c2cc(-c3ccn(C)c(=O)c3)n3cnnc3c2n1 [Example 9]	10 to 50	–	–
Cc1nc(N[C@H](C)c2cccc(C(F)(F)F)c2F)c2cc(-c3ccn(C)c(=O)c3)n3cnnc3c2n1 [Example 10]	10 to 50	–	–
Cc1nc(N[C@H](C)c2cccc(C(F)F)c2F)c2c(n1)N1CCN=C1C(c1ccc(=O)[nH]c1)=C2 [Example 12]	< 10	100 to 500	–
CC(=O)N1CC=C(C2=Cc3c(N[C@H](C)c4cccc(C(F)F)c4F)nc(C)nc3N3CCN=C23)CC1 [Example 31]	10 to 50	< 50	–
Cc1nc(N[C@H](C)c2cccc(C(F)(F)F)c2)c2c(n1)N1CCN=C1C(c1ccc(=O)n(C)c1)=C2 [Example 65]	10 to 50	100 to 500	–
Cc1nc(N[C@H](C)c2cccc(C(F)(F)CO)c2)c2c(n1)N1CCN=C1C(c1ccc(=O)n(C)c1)=C2 [Example 71]	< 10	100 to 500	–
Cc1nc(N[C@H](C)c2cccc(C(F)(F)F)c2)c2c(n1)N1CCN=C1C(c1cccnc1)=C2 [Example 94]	–	100 to 500	–
Cc1nc(N[C@H](C)c2cccc(C(F)(F)F)c2)c2c(n1)N1CCN=C1C(c1cncc(C#N)c1)=C2 [Example 95]	–	100 to 500	–
Cc1nc(N[C@H](C)c2cccc(C(F)(F)F)c2)c2c(n1)N1CCN=C1C(c1ccc(=O)n(CCO)c1)=C2 [Example 97]	< 10	100 to 500	–
CCn1cc(C2=Cc3c(N[C@H](C)c4cccc(C(F)(F)F)c4)nc(C)nc3N3CCN=C23)ccc1=O [Example 98]	< 10	100 to 500	–
Cc1nc(N[C@H](C)c2cccc(C(F)(F)F)c2)c2c(n1)N1CCN=C1C(c1cccn(C)c1=O)=C2 [Example 99]	10 to 50	100 to 500	–
COCCn1cc(C2=Cc3c(N[C@H](C)c4cccc(C(F)(F)F)c4)nc(C)nc3N3CCN=C23)ccc1=O [Example 100]	–	100 to 500	–

Now from value to molecule, other results behind:

IC50 (K-Ras^G12D and hSOS1) [nM]	IC50 (NCI-H358 cells; [1]) [nM]	Compound	IC50 (NCI-H358 cells; NCI-H358, 192 h) [nM]
–	100 to 500	Cc1nc(N[C@H](C)c2cccc(C(F)(F)F)c2)c2c(n1)N1CCN=C1C(c1ccc(=O)n(CC(F)F)c1)=C2 [Example 101]	–
–	100 to 500	Cc1nc(N[C@H](C)c2cccc(C(F)(F)F)c2)c2c(n1)N1CCN=C1C(c1cccc(=O)n1C)=C2 [Example 102]	–
–	100 to 500	Cc1nc(N[C@H](C)c2cccc(C(F)(F)F)c2)c2c(n1)N1CCN=C1C(c1cnc(=O)n(C)c1)=C2 [Example 103]	–
–	100 to 500	Cc1nc(N[C@H](C)c2cccc(C(F)(F)F)c2)c2c(n1)N1CCN=C1C(c1cn(C)c(=O)n(C)c1=O)=C2 [Example 104]	–
–	100 to 500	Cc1nc(N[C@H](C)c2cccc(C(F)(F)F)c2)c2c(n1)N1CCN=C1C(c1ccc(=O)n(C(C)C)c1)=C2 [Example 105]	–
–	100 to 500	Cc1nc(N[C@H](C)c2cccc(C(F)(F)F)c2)c2c(n1)N1CCN=C1C(c1cc(C)c(=O)n(C)c1)=C2 [Example 106]	–
–	100 to 500	Cc1nc(N[C@H](C)c2cccc(C(F)(F)F)c2)c2c(n1)N1CCN=C1C(c1ccn(CCO)c(=O)c1)=C2 [Example 107]	–
–	50 to 100	Cc1nc(N[C@H](C)c2cccc(C(F)(F)F)c2)c2c(n1)N1CCN=C1C(c1ccn(C3COC3)c(=O)c1)=C2 [Example 108]	–
10 to 50	50 to 100	[2H]C([2H])([2H])n1ccc(C2=Cc3c(N[C@H](C)c4cccc(C(F)(F)F)c4)nc(C)nc3N3CCN=C23)cc1=O [Example 109]	–
–	100 to 500	C[C@@H](Nc1nc(C2CC2)nc2c1C=C(c1ccn(C)c(=O)c1)C1=NCCN12)c1cccc(C(F)(F)F)c1 [Example 110]	–
–	100 to 500	C[C@@H](Nc1nc(C2CC2)nc2c1C=C(c1ccc(=O)n(C)c1)C1=NCCN12)c1cccc(C(F)(F)F)c1 [Example 111]	–
–	100 to 500	Cc1nc(N[C@H](C)c2cccc(C(F)(F)F)c2)c2c(n1)N1CCN=C1C(c1ccn(CF)c(=O)c1)=C2 [Example 113]	–
–	100 to 500	Cc1nc(N[C@H](C)c2cc(C(F)(F)F)ccn2)c2c(n1)N1CCN=C1C(c1ccn(C)c(=O)c1)=C2 [Example 117]	–
< 10	100 to 500	Cc1nc(N[C@H](C)c2cccc(C(F)(F)CO)c2)c2c(n1)N1CCN=C1C(c1ccn(C)c(=O)c1)=C2 [Example 118]	–
–	50 to 100	Cc1nc(N[C@H](C)c2cccc(C(F)(F)C(C)(C)O)c2F)c2c(n1)N1CCN=C1C(c1ccc(=O)n(C)c1)=C2 [Example 119]	–
–	100 to 500	Cc1nc(N[C@H](C)c2cccc3c2OCC3(F)F)c2c(n1)N1CCN=C1C(c1ccc(=O)n(C)c1)=C2 [Example 120]	–
–	100 to 500	Cc1nc(N[C@H](C)c2cccc3c2OCC3(F)F)c2c(n1)N1CCN=C1C(c1ccn(C)c(=O)c1)=C2 [Example 121]	–
< 10	50 to 100	Cc1nc(N[C@H](C)c2cccc(C(F)F)c2F)c2c(n1)N1CCN=C1C(C1=CCN(S(C)(=O)=O)CC1)=C2 [Example 122]	–
< 10	50 to 100	Cc1nc(N[C@H](C)c2cccc(C(F)F)c2F)c2c(n1)N1CCN=C1C(C1=CCN(C(=O)CC#N)CC1)=C2 [Example 123]	–
< 10	50 to 100	Cc1nc(N[C@H](C)c2cccc(C(F)F)c2F)c2c(n1)N1CCN=C1C(C1=CCN(C(=O)C3(F)CC3)CC1)=C2 [Example 124]	–
–	50 to 100	Cc1nc(N[C@H](C)c2cccc(C(F)F)c2F)c2c(n1)N1CCN=C1C(C1(O)CCN(C(=O)C3(F)CC3)CC1)=C2 [Example 125]	–

Source: patent US20250051330A1, “HETEROCYCLIC COMPOUND HAVING ANTI-TUMOR ACTIVITY AND USE THEREOF” (CSPC Zhongqi Pharmaceutical Technology (Shijiazhuang) Co., …, priority 2021, published 2025)
